Assay results taken from patent US20050147959A1, “Tissue analogs for in vitro testing and method of use therefor” (priority 2002, published 2005).

Legend:
[1] = tested on: cartilage analogs (human nasal septal chondrocytes on microcarriers); assay: De novo proteoglycan synthesis by 35S-sulfate incorporation in cartilage analogs cultured in spinner flasks; format: cell-based; settings: for sulfate incorporation, cell-associated (non-secreted) fraction, compared to controls: Ibuprofen 140 μg/ml; for de novo proteoglycan synthesis compared to the control (FIG. 8): subsequent study with PPS5, 35S label during last 24 hours of culture
Procedure: A preliminary experiment was conducted to analyze the effect of agents such as growth factors (TGF-β1) and non-steroidal anti-inflammatory drugs (NSAIDS; Ibuprofen). Human chondrocytes from donors undergoing nasal septal defect surgery were isolated by enzymatic digestion. The cells were seeded onto microcarriers at approximately 4×10^3 cells/cm^2, and incubated in spinner flasks at 60 rpm and at 37° C. and 5% CO2 until the cells reach confluency at about 14 days. […] These aggregates are referred to here as “cartilage analogs”.
(§1) Equivalent aliquots of these analogs were transferred to six 25-ml spinner flasks. Aliquots (5 ml) of control medium (no additive), or medium containing human platelet TGF-β1 (10 ng/ml; Sigma Chemical Co., St. Louis, Mo.) or Ibuprofen (140 μg/ml; Sigma) were added to duplicate flasks. TGF-β1 is a growth factor known to stimulate proteoglycan synthesis in chondrocyte cultures and cartilage explant cultures, while Ibuprofen is an anti-inflammatory drug known to inhibit proteoglycan synthesis. […] The cultures were incubated for two days. 24 hours prior to terminating the cultures, 300 μCi of ^35S—Na2SO4 (NEN Life Science Products, Boston, Mass.) was added to each flask to measure incorporation into proteoglycans during the last 24 hours of culture.
Following termination of the cultures, cells were pelleted by centrifugation and proteoglycans were extracted from the supernatant medium and the cell fraction with 4 M guanidine HCl for 24 hours at 4° C. Guanidine HCl extracts were dialyzed extensively against deionized class I water using 6,000 Da cut-off dialysis tubing (The Spectrum Companies, Gardena, Calif.). Post-dialysis volumes were measured and triplicate 100 μl samples were counted in a LS-6500 Liquid Scintillation Counter (Beckman Instruments, Inc., Palo Alto, Calif.) using Cytoscint-ES Cocktail (ICN Research Products, Costa Mesa, Calif.). The total ^35SO4 incorporation was expressed as cpm per 10^6 cells. Another set of dialyzed samples were dried on a Speed-Vac (Savant, Inc., Farmingdale, N.Y.) and was then reconstituted in sample buffer consisting of 1% sodium dodecylsulfate, 30% sucrose and 0.025% brophenol blue. The samples were boiled for 5 min and then loaded on an 0.75% agarose gel in electrophoresis buffer. After electrophoresis, the gel was treated with Entensify (NEN Life Science Products), dried and autoradiographed at −70° C.

[2] = tested on: cartilage analogs (human nasal septal chondrocytes on microcarriers); assay: Immunoperoxidase staining for proteoglycans in chondrocytes from cartilage analogs; format: cell-based; settings: two days incubation; TGF-β1 10 ng/ml, Ibuprofen 140 μg/ml
Procedure: A preliminary experiment was conducted to analyze the effect of agents such as growth factors (TGF-β1) and non-steroidal anti-inflammatory drugs (NSAIDS; Ibuprofen). Human chondrocytes from donors undergoing nasal septal defect surgery were isolated by enzymatic digestion. The cells were seeded onto microcarriers at approximately 4×10^3 cells/cm^2, and incubated in spinner flasks at 60 rpm and at 37° C. and 5% CO2 until the cells reach confluency at about 14 days. At this point, the chondrocytes produce extracellular matrix-like products consisting of type II collagen, high-molecular-weight proteoglycans and aggrecan. The constructs also start to form microaggregates. These aggregates are referred to here as “cartilage analogs”.
as §1, with “24 hours prior to terminating the cultures, 300 μCi of ^35S—Na2SO4 (NEN Life Science Products, Boston, Mass.) was added to each flask to measure incorporation into proteoglycans during the last 24 hours of culture.” left out

[3] = preliminary experiment, two days, 35S label during last 24 hours, TGF-β1 10 ng/ml

## TGF-β1: human platelet TGF-β1, a growth factor known to stimulate proteoglycan synthesis in chondrocyte cultures
[1]; [3]
  sulfate incorporation, media-associated (secreted) fraction, compared to controls: higher sulfate incorporation
  sulfate incorporation, cell-associated (non-secreted) fraction, compared to controls: higher sulfate incorporation
[1]
  de novo proteoglycan synthesis compared to the control (FIG. 8): enhanced protoglycan synthesis
[2]
  immunostaining for proteoglycans compared to control cells: More intense immunostaining

## CC(C)Cc1ccc(C(C)C(=O)O)cc1 (stereo not shown) [Ibuprofen, reference compound]
[1]; [3]
  sulfate incorporation, cell-associated (non-secreted) fraction, compared to controls: decreased the cell-associated sulfate incorporation
[1]
  de novo proteoglycan synthesis compared to the control (FIG. 8): decreased proteoglycan synthesis
[2]
  immunostaining for proteoglycans compared to control cells: more faint immunostaining
